Test results as given in patent US20090093493A1, “1-PHENYLALCOXY-2-BETA-PHENYLETHYL DERIVATIVES AS P-GLYCOPROTEIN (P-GP) INHIBITORS USEFUL IN DRUG RESISTANCE EVENTS” (priority 2007, published 2009).
Read-outs that look alike come from different tables or passages of the source.

Experiments:
P-gp [1] = target: T1, P-gp (Homo sapiens, UniProt P08183); assay: Classification of compounds interfering with P-gp activity (method of Polli et al. / Taub et al.); format: cell-based; set-up: apparent permeability determined in Caco-2 cells; endogenous in cells; host or cells: Caco-2; conditions: above-described assays
T1 sequence (P08183 whole entry): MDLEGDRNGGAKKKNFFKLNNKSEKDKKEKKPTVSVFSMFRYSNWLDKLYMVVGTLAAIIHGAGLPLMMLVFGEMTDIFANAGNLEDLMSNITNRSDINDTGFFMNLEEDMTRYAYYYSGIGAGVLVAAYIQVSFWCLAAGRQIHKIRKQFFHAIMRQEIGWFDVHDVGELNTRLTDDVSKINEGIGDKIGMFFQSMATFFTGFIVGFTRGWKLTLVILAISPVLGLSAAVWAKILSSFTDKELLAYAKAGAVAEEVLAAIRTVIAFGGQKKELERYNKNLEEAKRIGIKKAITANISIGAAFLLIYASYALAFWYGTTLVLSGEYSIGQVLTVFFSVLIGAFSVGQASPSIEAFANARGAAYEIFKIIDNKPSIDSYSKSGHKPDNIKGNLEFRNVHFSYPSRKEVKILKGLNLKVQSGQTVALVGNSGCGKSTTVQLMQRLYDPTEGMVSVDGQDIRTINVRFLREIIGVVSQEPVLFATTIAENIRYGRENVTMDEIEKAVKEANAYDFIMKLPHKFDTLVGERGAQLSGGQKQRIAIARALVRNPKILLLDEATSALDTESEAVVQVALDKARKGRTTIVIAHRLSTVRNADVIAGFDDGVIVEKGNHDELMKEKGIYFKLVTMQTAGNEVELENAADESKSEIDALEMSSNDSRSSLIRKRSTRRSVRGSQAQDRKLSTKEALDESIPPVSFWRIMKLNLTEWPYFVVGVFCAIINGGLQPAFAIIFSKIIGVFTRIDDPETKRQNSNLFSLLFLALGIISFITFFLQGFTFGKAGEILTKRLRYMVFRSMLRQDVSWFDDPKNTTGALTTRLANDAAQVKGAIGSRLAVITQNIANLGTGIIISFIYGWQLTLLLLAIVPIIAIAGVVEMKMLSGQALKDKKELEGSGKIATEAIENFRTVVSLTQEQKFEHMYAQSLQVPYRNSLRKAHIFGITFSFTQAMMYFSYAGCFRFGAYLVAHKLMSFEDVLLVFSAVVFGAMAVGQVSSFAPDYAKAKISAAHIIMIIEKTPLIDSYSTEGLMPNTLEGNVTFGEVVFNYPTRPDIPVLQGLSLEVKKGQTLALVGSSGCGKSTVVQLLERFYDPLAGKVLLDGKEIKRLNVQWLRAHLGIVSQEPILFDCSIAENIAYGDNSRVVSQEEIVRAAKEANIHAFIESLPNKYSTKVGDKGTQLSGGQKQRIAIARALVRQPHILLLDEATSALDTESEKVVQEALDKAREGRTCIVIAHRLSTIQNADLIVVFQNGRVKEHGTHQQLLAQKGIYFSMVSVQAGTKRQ
Description: The biological assays performed verify a) transport for each for each candidate compound by P-gp (apparent permeability determined in Caco-2 cells); b) ATP-ase activation in Caco-2 cells; c) inhibition of [^3H] Vinblastine basolateral-apical transport (in Caco-2 cells) and of rhodamine (in guinea pig ileum).

P-gp [2] = target: T1, P-gp; conditions: reported in literature; cited from earlier work
P-glycoprotein [3] = target: T2, P-glycoprotein (Homo sapiens, UniProt P08183)
T2 sequence (P08183 whole entry): as above
Protocol: (§1) Another assay is performed on MCF-7/ADr cells. These cells, resistant to the chemotherapy agent doxorubicin, are exposed for some hours to the compound under examination and subsequently treated with doxorubicin. The amount of doxorubicin entering the cell following treatment with the compounds under examination is then measured.
(§2) At the end of the incubation, the incubation medium containing the compound under examination was removed, and fresh medium containing 50 μM doxorubicin was added for 24 h. The negative control consisted of plates containing an alike number of cells untreated with the compound. At the end of the 24 h, the medium was removed and the cells split and prepared according to standard procedure for flow cytometry analysis.

P-glycoprotein [4] = target: T2, P-glycoprotein; assay: Doxorubicin accumulation in MCF7/Adr cells after pretreatment with compound (flow cytometry); conditions: for endocellular accumulation: above-described assays
Protocol: as §1, §2

[5] = MCF7/Adr, 20 μM compound for 120 min, then 50 μM doxorubicin for 24 h

inletting of doxorubicin in the cells (P-glycoprotein [4]; [5])	endocellular accumulation (P-glycoprotein [4])	SMILES	also measured
		c1ccc(CCc2ccccc2OCc2ccccc2)cc1 [EB 30, 1-(benzyloxy)-2-(2-phenylethyl)benzene]	Category of interference with P-gp activity (P-gp [1]): IIB
		COc1cc2c(cc1OC)CN(CCc1ccc(NC(=O)c3cccc4c(=O)c5cccc(OC)c5[nH]c34)cc1)CC2 [GF120918]	classification as pure inhibitor of P-gp (P-gp [2]): sole pure inhibitor of P-gp
		COc1cccc(CCc2ccccc2OCCCN2CCN(c3ncccn3)CC2)c1 [EB25, 3-{2-[2-(3-methoxyphenyl)ethyl]phenoxy}propan-1-[4-(2-pyrimidyl)piperazine]]	endocellular accumulation (P-glycoprotein [3]): very high
increase	very high	COc1cccc(CCc2ccccc2OCc2ccccn2)c1 [EB12, 2({2-[2-(3-methoxyphenyl)ethyl]phenoxy}methyl]pyridine]	effectiveness in P-glycoprotein inhibition relative to Verapamil and EB27 (P-glycoprotein [4]; [5]): 5 fold
increase	very high	COc1cccc(CCc2ccccc2OCc2cccc(OC)c2)c1 [EB27, 1-[(3-methoxybenzyl)oxy]-2-[2-(3-methoxyphenyl)ethyl]benzene]	
